Assay [1] concerns the target T1, Histone-lysine N-methyltransferase NSD2 (Homo sapiens, UniProt O96028).
T1 sequence (O96028 whole entry): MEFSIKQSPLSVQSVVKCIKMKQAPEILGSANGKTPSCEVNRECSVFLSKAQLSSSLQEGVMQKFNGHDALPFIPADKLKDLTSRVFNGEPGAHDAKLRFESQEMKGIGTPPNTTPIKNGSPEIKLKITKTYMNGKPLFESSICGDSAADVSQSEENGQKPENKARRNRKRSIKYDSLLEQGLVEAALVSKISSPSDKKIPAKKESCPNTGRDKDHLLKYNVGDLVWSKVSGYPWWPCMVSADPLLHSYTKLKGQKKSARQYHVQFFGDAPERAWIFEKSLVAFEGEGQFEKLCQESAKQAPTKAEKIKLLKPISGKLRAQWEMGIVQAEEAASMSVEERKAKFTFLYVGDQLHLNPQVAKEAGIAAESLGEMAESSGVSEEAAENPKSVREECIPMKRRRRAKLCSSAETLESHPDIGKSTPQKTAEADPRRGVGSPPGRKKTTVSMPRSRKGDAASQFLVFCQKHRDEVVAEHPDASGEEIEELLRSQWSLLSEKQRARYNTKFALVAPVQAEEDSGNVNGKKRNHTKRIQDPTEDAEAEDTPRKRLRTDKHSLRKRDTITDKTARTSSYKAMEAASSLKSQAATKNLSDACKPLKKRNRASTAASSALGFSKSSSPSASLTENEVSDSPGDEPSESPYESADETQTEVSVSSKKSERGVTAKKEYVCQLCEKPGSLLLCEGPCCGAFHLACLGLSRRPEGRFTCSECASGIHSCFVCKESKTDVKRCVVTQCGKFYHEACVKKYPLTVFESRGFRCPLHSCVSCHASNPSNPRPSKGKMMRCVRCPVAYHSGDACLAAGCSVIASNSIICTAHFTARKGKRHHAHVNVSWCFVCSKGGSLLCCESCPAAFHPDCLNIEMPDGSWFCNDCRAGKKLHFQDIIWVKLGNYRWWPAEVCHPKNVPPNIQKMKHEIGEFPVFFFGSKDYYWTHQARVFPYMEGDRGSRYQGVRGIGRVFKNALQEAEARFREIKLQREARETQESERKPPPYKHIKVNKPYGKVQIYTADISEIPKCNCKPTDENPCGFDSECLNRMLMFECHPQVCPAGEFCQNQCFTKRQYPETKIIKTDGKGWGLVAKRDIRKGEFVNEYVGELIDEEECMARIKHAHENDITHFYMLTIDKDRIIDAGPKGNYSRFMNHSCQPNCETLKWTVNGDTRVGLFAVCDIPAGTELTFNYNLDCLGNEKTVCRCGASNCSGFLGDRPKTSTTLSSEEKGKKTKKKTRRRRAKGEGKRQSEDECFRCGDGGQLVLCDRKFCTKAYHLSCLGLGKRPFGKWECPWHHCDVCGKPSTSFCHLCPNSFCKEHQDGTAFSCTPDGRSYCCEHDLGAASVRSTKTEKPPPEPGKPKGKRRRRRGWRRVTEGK
It is filed as biochemical.

Assay [2] is described as follows: NIH3T3 cell viability loss – ATP luminescence, mouse fibroblasts, counter-screen, dose response (AID 2010).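 Note: cells exposed to compound for about 90 hours before reading.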 It is filed as functional, cell-based. For orientation: A counterscreen serves to expose hits that act by an unwanted route or on another target.
The target in assay [3] is Kappa-type opioid receptor (Homo sapiens, UniProt P41145). It is filed as functional.
Chain of Kappa-type opioid receptor (P41145 whole entry): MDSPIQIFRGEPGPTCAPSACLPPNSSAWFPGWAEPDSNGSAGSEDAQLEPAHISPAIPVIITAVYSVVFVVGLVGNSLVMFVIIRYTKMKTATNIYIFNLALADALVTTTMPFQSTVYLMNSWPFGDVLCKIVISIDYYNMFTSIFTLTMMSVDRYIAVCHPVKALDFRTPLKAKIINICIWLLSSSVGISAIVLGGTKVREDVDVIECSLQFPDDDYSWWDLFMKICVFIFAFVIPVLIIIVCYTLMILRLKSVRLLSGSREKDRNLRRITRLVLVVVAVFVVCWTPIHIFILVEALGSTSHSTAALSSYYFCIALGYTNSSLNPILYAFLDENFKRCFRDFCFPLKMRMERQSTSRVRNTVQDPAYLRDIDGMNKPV
Assay [4] addresses T2, Protein RecA (Mycobacterium tuberculosis, UniProt P9WHJ3).
T2 sequence (P9WHJ3 whole entry): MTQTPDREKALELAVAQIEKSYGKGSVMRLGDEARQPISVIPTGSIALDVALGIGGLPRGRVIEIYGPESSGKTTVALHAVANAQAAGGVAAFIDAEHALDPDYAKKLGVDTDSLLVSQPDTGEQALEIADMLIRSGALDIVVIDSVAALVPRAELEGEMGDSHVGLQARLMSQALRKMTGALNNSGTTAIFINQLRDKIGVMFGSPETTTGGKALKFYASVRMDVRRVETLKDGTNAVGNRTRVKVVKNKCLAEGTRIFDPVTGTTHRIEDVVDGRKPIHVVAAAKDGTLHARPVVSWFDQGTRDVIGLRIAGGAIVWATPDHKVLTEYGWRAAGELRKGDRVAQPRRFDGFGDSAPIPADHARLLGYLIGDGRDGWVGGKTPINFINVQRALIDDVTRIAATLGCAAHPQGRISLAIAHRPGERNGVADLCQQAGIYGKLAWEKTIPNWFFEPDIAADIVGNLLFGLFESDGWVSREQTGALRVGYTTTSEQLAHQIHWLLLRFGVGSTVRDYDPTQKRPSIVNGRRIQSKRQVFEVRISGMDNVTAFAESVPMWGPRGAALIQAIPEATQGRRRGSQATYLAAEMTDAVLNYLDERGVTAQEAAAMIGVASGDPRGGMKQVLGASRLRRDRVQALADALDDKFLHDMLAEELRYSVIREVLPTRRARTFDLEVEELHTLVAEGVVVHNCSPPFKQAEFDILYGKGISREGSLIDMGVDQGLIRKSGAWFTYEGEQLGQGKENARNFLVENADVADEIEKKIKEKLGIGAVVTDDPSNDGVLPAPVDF
Briefly: Fluorescence Cell-Free Homogeneous Dose Retest to Identify Inhibitors of RecA-Intein Splicing Activity. [Related pubchem assays (depositor defined):AID2097, AID2223, AID489010, AID492950]. Type of assay: functional.

Calls of active or inactive are those of the source. Cut-off read from the data, not from the text of the source, for most assays here: actives have a measured EC50 and inactives only a lower limit.

For `O=S(=O)(O)c1cc(O)c2cc(Nc3ccccc3)ccc2c1`, the AC50 in assay [1] was 1.8 µM (active).
Regarding `O=[N+]([O-])c1c(Nc2ccccc2O)cc(Cl)c2nonc12`, the EC50 in assay [2] was 3.68 µM (active); in assay [4], 1.21 µM (active). For the same compound, the IC50 in assay [3] came to 11.5 µM.

Usually AC50 stands for the concentration giving half of the maximal activity seen. The EC50 is the concentration that produces a half-maximal response. A word on the IC50: it is the midpoint of a concentration-inhibition curve.

The values are drawn from ChEMBL document CHEMBL1201862, “PubChem BioAssay data set” (2004).
